# In patent EP1229025A1, “NOVEL QUINAZOLINE DERIVATIVES” (Japan Energy Corporation, priority 1999, dated 2001):
# Tests used:
# Type in all cases: cell-based
# TNF-α production = TNF-α production inhibiting test using human PBMC (LPS stimulus, ELISA); conditions: LPS 10 ng/ml, 16 hours, ELISA of culture supernatants
# Method: Example 145: TNF-α production inhibiting test using human PBMC (peripheral blood mononuclear cells)
# Preparation of human PBMC
# The blood of a healthy person was taken with a vacuum blood-collecting tube (Nipro neotube) and diluted up to two-fold with physiological saline (Otsuka Pharmaceuticals). To the diluted blood was added 6% dextran T-500 (prepared after dissolution in physiological saline (Otsuka Pharmaceuticals) and sterilization with an autoclave) so as to make a final concentration of 1%. The solution was subjected to tumble mixing and allowed to stand at room temperature for 30 minutes to precipitate the erythrocytes. The supernatant was collected and subjected to centrifugation at 20 °C and at 1,500 rpm for 10 minutes. The cells were suspended in 3 ml of RPMI1640 culture medium (Asahi Technogllas) and overlaid on the solution surface of 3 ml Lymphoprep (NYCOMED). Further, with 1.5 ml of RPMI1640 culture medium being added to the tube which had contained the cell suspension liquid, the cells attached to the tube, which had remained uncollected, were suspended for collection and overlaid on the Lymphoprep previously mentioned. This operation was repeated again. After centrifugation at 20 °C and at 2,000 rpm for 30 minutes, there was collected a fraction of peripheral blood mononuclear cells present in the boundary surface between the Lymphoprep and the RPMI1640 culture medium. The cells were washed twice with 10 ml RPMI1640 culture medium to remove the Lymphoprep and then suspended in a RPMI1640 culture medium added with 10% bovine fetal serum (IRVINE SCIENTIFIC), 100 U/ml penicillin and 100 µg/ml streptomycin (hereinafter referred to as cRPMI1640 culture medium). The number of the cells was measured by Tuerk dying, and the cells, after adjustment to 3 × 10^6 cells/ml, were planted in 100 µl/well on a 96-well plate (FALCON). The cells were cultured at 37 °C under 5%CO2 atmosphere for about 5 hours.
# Induction of TNF-α production by LPS stimulus
# LPS (E.coli 0111:B4, DIFCO), which had been prepared to 10 mg/ml with water and kept at -20, was diluted to 100 µg/ml with cRPMI1640 culture medium and subjected to sterile filtration. The 100 µg/ml LPS was diluted with cRPMI1640 culture medium to prepare 20 ng/ml LPS. A compound to be tested which was dissolved in DMSO at 1,000-fold concentration was diluted to 500-fold with cRPMI1640 culture medium containing 20 ng/ml LPS and added in 100 µl/well to the cells which had been planted on the previously mentioned 96-well plate (final concentration of LPS: 10 ng/ml). For use as the control group, the solutions were made by diluting DMSO of the same volume as in the test compounds with cRPMI1640 culture medium containing 20 ng/ml LPS, and they were added to the cells. These cells were cultured at 37 °C under 5%CO2 atmosphere for 16 hours.
# Determination of TNF-α activity (ELISA method)
# To the 96-well plate the mouse anti-human TNF-α antibody (prepared to 2 µg/ml with Coating buffer*^1) was added so as to make 100 µl/well and allowed to stand at 4 °C overnight. After 5-times washing with Wash buffer*^2 (300µl/well), the Blocking buffer*^3 was added to the solutions, which were allowed to stand 37 °C for 2 hours. The culture supernatants were diluted up to 5-fold in the plate (supernatant 20 µl being added to 80 µl of cRPMI1640 culture medium). Simultaneously, for using for a calibration curve, a series of dilution of recombinant human TNF-α was prepared arid allowed to stand 37 °C for 1 hour. After 5-times washing with Wash buffer (300 µl /well), biotinylated rabbit anti-human TNF-α antibody (prepared to 0.25 µg/ml with Antibody diluent*^4) was added so as to make 100 µl /well and allowed to stand at 37 °C for 1 hour. After 5-times washing with Wash buffer (300 µl /well), Streptavidin-Horseradish peroxidase(prepared to 1:4000 with Antibody diluent) was added to make 100 µl /well and allowed to stand at 37 °C for 15 minutes. […]
# IL-5 production = IL-5 production inhibiting test in OVA-stimulated spleen cells of immunised mouse (ELISA); conditions: 72 h, spleen cells of OVA-immunised BALB/c-mouse, OVA 0.5 mg/ml, 3 days
# Method: (§1) Example 146: IL-4 and IL-5 production inhibiting test
# (§2) A 6-weeks-old BALB/c-mouse (Nippon Charles River) was bred preparatively for 1 week and given at the day 0 and day 14 intraperitoneal injection of 100 µl PBS to give immunity which PBS contained 0.1 mg/ml of Ovalbumin(OVA) and 40 mg/ml of aluminum hydroxide. At the day 21 the spleen was taken out from the mouse. The spleen was dissected with a pincette in cooled PBS, passed through a mesh and subjected to centrifugation at 4 °C at 1,500 rpm for 5 minutes. The cells was added with 5 ml of 0.2% NaCI to destroy erythrocytes, and then was made isotonic by adding 5 ml of 1.6% of NaCl. After centrifugation at 4 °C, 1,500 rpm for 5 minutes, the cells were washed twice with 10 ml ofRPMI1640 culture medium. The obtained spleen cells were suspended in cRPMI1640 medium, and the number of the cells was measured by Tuerk dying. After being adjusted to 1 × 10^7 cells/ml, the cells were planted in 100 µl/well on a 96-well plate (FALCON). The cells were cultured at 37 °C under 5% CO2 atmosphere for about 4 hours. OVA was prepared to 10 mg/ml with cRPMI1640 culture medium and subjected to sterile filtration. The 10 mg/ml OVA was diluted with cRPMI1640 culture medium to give 1 mg/ml OVA. A compound to be tested which was dissolved in DMSO in at 1,000-fold concentration was diluted up to 500-fold with cRPMI1640 culture medium containing 1 mg/ml OVA and added in 100 µl/well to the cells which had been planted on the previously mentioned 96-well plate (final concentration of OVA: 0.5 mg/ml). As the controls, the solutions were made by diluting DMSO of the same volume as with the test compounds with cRPMI1640 culture medium containing 1 mg/ml OVA, and they were added to the cells. These cells were cultured at 37 °C under 5%CO2 atmosphere for 3 days. IL-4 and IL-5 in the culture supernatants after 3 days were quantitatively determined by ELISA method. IL-4 and IL-5 were quantitatively determined using IL-4 Development Kit (Genzyme Techne) and mouse IL-5 MiniKit (ENDOGEN), respectively. The production inhibiting rates of each tested compound against IL-4 are shown in Table 22, those against IL-5 in Table 23.
# IL-4 production = IL-4 production inhibiting test in OVA-stimulated spleen cells of immunised mouse (ELISA); conditions: 72 h, spleen cells of OVA-immunised BALB/c-mouse, OVA 0.5 mg/ml, 3 days
# Method: as §1, §2
smiles,measurement,setting,value
"O=[N+]([O-])c1cc2c(NCc3ccccc3F)ncnc2cc1N1CCNCC1 [Example 61, 4-(2-fluorobenzylamino)-6-nitro-7-(piperazin-1-yl)quinazoline]",IC50,TNF-α production,300 nM
same,IC50,IL-5 production,2000 nM
same,IC50,IL-4 production,200 nM
"O=[N+]([O-])c1cc2c(NCc3cccc(F)c3)ncnc2cc1N1CCNCC1 [Example 62, 4-(3-fluorobenzylamino)-6-nitro-7-(piperazin-1-yl)quinazoline]",IC50,TNF-α production,300 nM
same,IC50,IL-5 production,1400 nM
same,IC50,IL-4 production,100 nM
"CCOC(=O)c1ccc(CNc2ncnc3cc(N4CCNCC4)c([N+](=O)[O-])cc23)cc1 [Example 129, 4-[(4-ethoxycarbonyl)benzylamino]-6-nitro-7-(piperazin-1-yl)quinazoline]",IC50,TNF-α production,200 nM
same,IC50,IL-5 production,1700 nM
same,IC50,IL-4 production,100 nM
"CC(C)(C)c1cc(CNc2ncnc3cc(N4CCNCC4)c([N+](=O)[O-])cc23)cc(C(C)(C)C)c1O [Example 131, 4-[(3,5-di-tert-butyl-4-hydroxy)benzylamino]-6-nitro-7-(piperazin-1-yl)quinazoline]",IC50,TNF-α production,300 nM
same,IC50,IL-5 production,1400 nM
same,IC50,IL-4 production,200 nM
